Where two headings read alike, the source gives them in different places.
Assays:
[1] = tested on: ALK L1196M cells containing ALK enzyme; assay: ALK inhibitory activity in ALK L1196M cells, SRB staining of live cells; assay type: cell-based
Description: DMSO (dimethylsulfoxide) was added to the well that was not loaded with the compound by the same amount as the compound. Three days after the addition of the compound, DMEM was eliminated. 10% TCA (trichloroacetic acid) was added to fix the cells. The wells were washed with running water three times and the live cells were stained with SRB solution (1× sulphorodamine B). Then, OD was measured to calculate the population of the live cells. IC50 of the experimental compound used in the experiment above was calculated by using prism software (Version 5.01, Graphpad). […] Table 2 presents the ALK inhibitory activity of the compounds of the examples of the present invention in ALK L1196M containing ALK enzyme.

[2] = tested on: H3122, the non-small cell lung cancer cell line; assay: ALK inhibitory activity in H3122, SRB staining of live cells; assay type: cell-based; conditions: Homo sapiens
Description: […] One day later, the compound of the present invention was added to each well at different concentrations of 10 μM, 2 μM, 0.4 μM, 0.08 μM, […], and 0.00032 μM. DMSO (dimethylsulfoxide) was added to the well that was not loaded with the compound by the same amount as the compound. Three days after the addition of the compound, DMEM was eliminated. 10% TCA (trichloroacetic acid) was added to fix the cells. The wells were washed with running water three times and the live cells were stained with SRB solution (1× sulphorodamine B). Then, OD was measured to calculate the population of the live cells. IC50 of the experimental compound used in the experiment above was calculated by using prism software (Version 5.01, Graphpad).
Table 2 presents the ALK inhibitory activity of the compounds of the examples of the present invention in H3122 containing ALK enzyme.

ALK enzyme = ALK enzyme (Homo sapiens, UniProt Q9UM73); assay: Anaplastic lymphoma kinase (ALK) inhibitory activity, HTRF kinase assay; assay type: biochemical
Ba/F3 EML4-ALK L1196M = Ba/F3 EML4-ALK L1196M (Homo sapiens, UniProt Q9UM73, L1196M, cells depend on it); assay: ALK inhibitory activity in Ba/F3 EML4-ALK L1196M, SRB staining of live cells; conditions: read-out: Ba/F3 EML4-ALK L1196M, three days
Description: Particularly, 4,000 ALK L1196M cells containing ALK enzyme were distributed in each well of a 96 well plate together with 100 μl of DMEM (Dulbecco's Modified Eagle's Medium). […] DMSO (dimethylsulfoxide) was added to the well that was not loaded with the compound by the same amount as the compound. Three days after the addition of the compound, DMEM was eliminated. 10% TCA (trichloroacetic acid) was added to fix the cells. The wells were washed with running water three times and the live cells were stained with SRB solution (1× sulphorodamine B). Then, OD was measured to calculate the population of the live cells.

[3] = 72 h, ALK L1196M cells, three days, SRB, read-out: ALK L1196M
[4] = NCI-H3122, 72 h, three days, SRB, read-out: Non-small cell lung cancer cell line H3122
[5] = NCI-H3122, read-out: ALK inhibitory activity in H3122 containing ALK enzyme at the concentration range
[6] = read-out: anaplastic lymphoma kinase (ALK) inhibitory activity at the concentration
[7] = ALK L1196M cells, read-out: ALK inhibitory activity in ALK L1196M containing ALK enzyme at the concentration

Chain of ALK enzyme (Q9UM73 19-1620): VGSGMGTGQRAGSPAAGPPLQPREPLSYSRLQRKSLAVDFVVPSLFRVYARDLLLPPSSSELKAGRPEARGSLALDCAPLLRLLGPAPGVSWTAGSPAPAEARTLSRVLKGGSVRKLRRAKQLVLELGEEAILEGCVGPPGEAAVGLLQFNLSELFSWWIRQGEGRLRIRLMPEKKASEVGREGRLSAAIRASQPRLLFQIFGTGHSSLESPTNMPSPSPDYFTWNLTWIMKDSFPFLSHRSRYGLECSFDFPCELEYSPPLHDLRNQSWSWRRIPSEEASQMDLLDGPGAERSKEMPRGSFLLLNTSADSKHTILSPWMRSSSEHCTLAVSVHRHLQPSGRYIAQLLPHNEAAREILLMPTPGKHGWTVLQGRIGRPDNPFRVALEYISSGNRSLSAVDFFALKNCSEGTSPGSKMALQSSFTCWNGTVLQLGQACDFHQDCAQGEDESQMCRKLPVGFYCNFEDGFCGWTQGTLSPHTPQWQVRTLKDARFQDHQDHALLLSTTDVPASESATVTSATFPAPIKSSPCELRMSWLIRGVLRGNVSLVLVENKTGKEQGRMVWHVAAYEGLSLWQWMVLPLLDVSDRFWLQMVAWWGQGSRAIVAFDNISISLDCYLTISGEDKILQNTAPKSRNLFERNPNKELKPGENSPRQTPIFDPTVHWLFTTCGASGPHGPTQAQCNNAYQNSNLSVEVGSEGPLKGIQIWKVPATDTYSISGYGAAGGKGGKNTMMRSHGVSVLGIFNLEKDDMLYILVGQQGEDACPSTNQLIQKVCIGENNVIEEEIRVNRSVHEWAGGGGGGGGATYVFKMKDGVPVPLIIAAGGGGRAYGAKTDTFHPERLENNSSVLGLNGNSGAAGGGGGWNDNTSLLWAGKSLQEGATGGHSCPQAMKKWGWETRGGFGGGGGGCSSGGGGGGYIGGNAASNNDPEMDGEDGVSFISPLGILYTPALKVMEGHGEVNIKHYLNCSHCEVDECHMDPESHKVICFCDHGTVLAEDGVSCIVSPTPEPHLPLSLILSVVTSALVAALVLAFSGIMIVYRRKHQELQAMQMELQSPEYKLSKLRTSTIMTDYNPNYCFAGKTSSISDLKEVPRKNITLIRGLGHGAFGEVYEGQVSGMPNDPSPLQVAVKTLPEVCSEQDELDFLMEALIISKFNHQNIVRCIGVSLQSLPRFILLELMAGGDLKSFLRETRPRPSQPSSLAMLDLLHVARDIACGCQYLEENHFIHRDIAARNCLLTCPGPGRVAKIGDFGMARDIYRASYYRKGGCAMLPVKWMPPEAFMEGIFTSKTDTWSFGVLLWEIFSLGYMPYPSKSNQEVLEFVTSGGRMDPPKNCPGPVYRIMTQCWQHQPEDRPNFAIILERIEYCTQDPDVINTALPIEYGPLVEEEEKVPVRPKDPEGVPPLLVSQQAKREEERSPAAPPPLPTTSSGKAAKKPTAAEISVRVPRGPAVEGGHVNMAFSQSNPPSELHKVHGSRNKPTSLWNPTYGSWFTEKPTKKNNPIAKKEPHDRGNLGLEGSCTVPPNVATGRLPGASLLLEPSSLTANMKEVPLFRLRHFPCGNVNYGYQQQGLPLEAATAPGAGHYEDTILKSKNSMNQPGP
Chain of Ba/F3 EML4-ALK L1196M (Q9UM73 whole entry L1196M): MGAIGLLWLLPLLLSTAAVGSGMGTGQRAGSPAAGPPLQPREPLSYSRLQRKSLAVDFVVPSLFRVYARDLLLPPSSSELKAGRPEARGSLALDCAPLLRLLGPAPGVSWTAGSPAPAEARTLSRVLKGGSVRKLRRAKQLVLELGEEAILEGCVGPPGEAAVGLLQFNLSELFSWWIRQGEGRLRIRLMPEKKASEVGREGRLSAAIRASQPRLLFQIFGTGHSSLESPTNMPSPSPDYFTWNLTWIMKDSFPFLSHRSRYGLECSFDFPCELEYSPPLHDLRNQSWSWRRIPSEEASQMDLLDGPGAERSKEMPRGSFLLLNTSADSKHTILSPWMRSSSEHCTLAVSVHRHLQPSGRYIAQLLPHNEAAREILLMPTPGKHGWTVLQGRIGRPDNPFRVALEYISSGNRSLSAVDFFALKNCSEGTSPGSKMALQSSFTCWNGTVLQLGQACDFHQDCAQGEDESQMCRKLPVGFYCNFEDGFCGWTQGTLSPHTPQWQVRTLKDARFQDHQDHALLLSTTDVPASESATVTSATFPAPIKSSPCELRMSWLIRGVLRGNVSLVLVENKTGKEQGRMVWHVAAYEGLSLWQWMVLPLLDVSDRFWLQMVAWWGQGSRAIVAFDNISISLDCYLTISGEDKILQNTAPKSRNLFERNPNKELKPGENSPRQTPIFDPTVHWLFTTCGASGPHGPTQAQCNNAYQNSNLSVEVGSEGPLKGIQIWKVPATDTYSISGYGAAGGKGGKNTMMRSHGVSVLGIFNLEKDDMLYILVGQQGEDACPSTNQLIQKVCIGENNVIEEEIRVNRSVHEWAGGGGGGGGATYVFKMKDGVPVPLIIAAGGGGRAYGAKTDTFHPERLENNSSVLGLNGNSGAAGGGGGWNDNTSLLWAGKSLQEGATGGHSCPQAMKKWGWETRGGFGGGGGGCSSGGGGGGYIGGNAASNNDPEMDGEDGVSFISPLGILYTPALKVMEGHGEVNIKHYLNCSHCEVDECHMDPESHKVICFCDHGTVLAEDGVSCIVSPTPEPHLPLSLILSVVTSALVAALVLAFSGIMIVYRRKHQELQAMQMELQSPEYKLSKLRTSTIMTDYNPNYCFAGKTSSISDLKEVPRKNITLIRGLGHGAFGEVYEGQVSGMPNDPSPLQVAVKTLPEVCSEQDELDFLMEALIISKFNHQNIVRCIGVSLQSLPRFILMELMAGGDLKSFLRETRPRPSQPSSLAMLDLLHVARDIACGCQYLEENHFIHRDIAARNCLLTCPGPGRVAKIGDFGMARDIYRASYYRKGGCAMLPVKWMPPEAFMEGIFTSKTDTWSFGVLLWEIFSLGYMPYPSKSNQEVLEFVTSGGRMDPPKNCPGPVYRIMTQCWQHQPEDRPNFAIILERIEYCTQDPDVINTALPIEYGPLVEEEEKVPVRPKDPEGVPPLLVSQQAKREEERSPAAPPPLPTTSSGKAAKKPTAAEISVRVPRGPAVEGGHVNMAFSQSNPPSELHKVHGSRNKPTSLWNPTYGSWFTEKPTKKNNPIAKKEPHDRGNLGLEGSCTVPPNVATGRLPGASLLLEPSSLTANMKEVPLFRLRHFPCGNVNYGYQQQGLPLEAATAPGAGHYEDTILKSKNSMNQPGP

| SMILES | IC50 [1, 3] [nM] | IC50 [2, 4] [nM] | IC50 (ALK enzyme; HTRF, read-out: ALK) [nM] | GI50 (Ba/F3 EML4-ALK L1196M) [nM] | IC50 [2, 5] [nM] | IC50 (ALK enzyme; [6]) [nM] | IC50 ([1]; 72 h, read-out: ALK L1196M) [nM] | IC50 [1, 7] [nM] |
| --- | --- | --- | --- | --- | --- | --- | --- | --- |
| COc1cc2c(cc1Nc1ncc(Cl)c(Nc3ccccc3S(=O)(=O)C(C)C)n1)C(C)(C)/C(=N/NC(=N)N)CC2 [Example 18, (E)-2-(7-(5-chloro-4-(2-(isopropylsulfonyl)phenylamino)pyrimidine-2-ylamino)-6-methoxy-1,1-dimethyl-3,4-dihydronaphthalene-2(1H)-yladene)hydrogencarboxamideamide] | 10 to 100 | > 100 | 10 to 100 | > 100 | – | – | – | – |
| COc1cc2c(cc1Nc1ncc(Cl)c(Nc3ccccc3S(=O)(=O)C(C)C)n1)CC/C(=N\NC(=N)N)C2(C)C [Example 11, (E)-2-(6-(5-chloro-4-(2-(isopropylsulfonyl)phenylamino)pyrimidine-2-ylamino)-7-methoxy-1,1-dimethyl-3,4-dihydronaphthalene-2(1H)-yladene)hydrogencarboxamideamide] | 10 to 100 | > 100 | 10 to 100 | > 100 | – | – | – | – |
| COc1cc2c(cc1Nc1ncc(Cl)c(Nc3ccccc3S(=O)(=O)C(C)C)n1)C(C)(C)/C(=N/NC(C)=O)CC2 [Example 20, (E)-N-(7-(5-chloro-4-(2-(isopropylsulfonyl)phenylamino)pyrimidine-2-ylamino)-6-methoxy-1,1-dimethyl-3,4-dihydronaphthalene-2(1H)-yladene)acetohydrazide] | > 100 | > 100 | 10 to 100 | > 100 | – | – | – | – |
| COc1cc2c(cc1Nc1ncc(Cl)c(Nc3ccccc3S(=O)(=O)C(C)C)n1)CC/C(=N\O)C2(C)C [Example 8, (E)-6-(5-chloro-4-(2-(isopropylsulfonyl)phenylamino)pyrimidine-2-ylamino)-7-methoxy-1,1-dimethyl-3,4-dihydronaphthalene-2(1H)-one oxime] | – | > 100 | > 100 | > 100 | – | – | – | – |
| COc1cc2c(cc1Nc1ncc(Cl)c(Nc3ccccc3S(=O)(=O)C(C)C)n1)CC/C(=N\NC(N)=O)C2(C)C [Example 10, (E)-2-(6-(5-chloro-4-(2-(isopropylsulfonyl)phenylamino)pyrimidine-2-ylamino)-7-methoxy-1,1-dimethyl-3,4-dihydronaphthalene-2(1H)-yladene)hydrogencarboxamide] | 10 to 100 | > 100 | 10 to 100 | > 100 | – | – | – | – |
| COc1cc2c(cc1Nc1ncc(Cl)c(Nc3ccccc3S(=O)(=O)C(C)C)n1)CCC(=O)C2(C)C [Example 5, 6-(5-chloro-4-(2-(isopropylsulfonyl)phenylamino)pyrimidine-2-ylamino)-7-methoxy-1,1-dimethyl-3,4-dihydronaphthalene-2(1H)-one] | – | 10 to 100 | – | – | 10 to 100 | – | – | – |
| COc1cc2c(cc1Nc1ncc(Cl)c(Nc3ccccc3S(=O)(=O)C(C)C)n1)CCC(NC(=O)C(F)(F)F)C2(C)C (centres unmarked) [Example 4, N-(6-(5-chloro-4-(2-(isopropylsulfonyl)phenylamino)pyrimidine-2-ylamino)-7-methoxy-1,1-dimethyl-1,2,3,4-tetrahydronaphthalene-2-yl)-2,2,2-trifluoroacetamide] | > 100 | > 100 | > 100 | > 100 | – | – | – | – |
| COc1cc2c(cc1Nc1ncc(Cl)c(Nc3ccccc3S(=O)(=O)C(C)C)n1)CCC(N1CCOCC1)C2 (centres unmarked) [Example 1, 5-chloro-N4-(2-(isopropylsulfonyl)phenyl)-N2-(3-methoxy-6-morpholino-5,6,7,8-tetrahydronaphthalene-2-yl)pyrimidine-2,4-diamine] | 10 to 100 | 10 to 100 | < 10 | 10 to 100 | 10 to 100 | ≤ 10 | – | – |
| COc1cc2c(cc1Nc1ncc(Cl)c(Nc3ccccc3S(=O)(=O)C(C)C)n1)CCC(NC(=N)N)C2(C)C (centres unmarked) [Example 31] | < 10 | > 100 | – | > 100 | – | – | – | – |
| COc1cc2c(cc1Nc1ncc(Cl)c(Nc3ccccc3S(=O)(=O)C(C)C)n1)C(C)(C)C(O)CC2 (centres unmarked) [Example 25, 7-(5-chloro-4-(2-(isopropylsulfonyl)phenylamino)pyrimidine-2-ylamino)-6-methoxy-1,1-dimethyl-1,2,3,4-tetrahydronaphthalene-2-ol] | 10 to 100 | > 100 | 10 to 100 | > 100 | – | – | – | – |
| COc1cc2c(cc1Nc1ncc(Cl)c(Nc3ccccc3S(=O)(=O)C(C)C)n1)C(=O)C(N1CCOCC1)CC2 (centres unmarked) [Example 3, 7-(5-chloro-4-(2-(isopropylsulfonyl)phenylamino)pyrimidine-2-ylamino)6-methoxy-2-morpholino-3,4-dihydronaphthalene-1(2H)-one] | – | > 100 | 10 to 100 | > 100 | – | – | > 100 | – |
| COc1cc2c(cc1Nc1ncc(Cl)c(Nc3ccccc3S(=O)(=O)C(C)C)n1)CC/C(=N\N1CCOCC1)C2(C)C [Example 15, (E)-5-chloro-N4-(2-(isopropylsulfonyl)phenyl)-N2-(3-methoxy-5,5-dimethyl-6-(morpholinoimino)-5,6,7,8-tetrahydronaphthalene-2-yl)pyrimidine-2,4-diamine] | 10 to 100 | 10 to 100 | 10 to 100 | > 100 | 10 to 100 | – | – | – |
| COc1cc2c(cc1Nc1ncc(Cl)c(Nc3ccccc3S(=O)(=O)C(C)C)n1)CCC(NC(C)=N)C2(C)C (centres unmarked) [Example 30] | < 10 | 10 to 100 | – | > 100 | – | – | – | – |
| COc1cc2c(cc1Nc1ncc(Cl)c(Nc3ccccc3S(=O)(=O)C(C)C)n1)C(C)(C)/C(=N/NC(N)=O)CC2 [Example 21, (E)-2-(7-(5-chloro-4-(2-(isopropylsulfonyl)phenylamino)pyrimidine-2-ylamino)-6-methoxy-1,1-dimethyl-3,4-dihydronaphthalene-2(1H)-yladene)hydragencarboxamide] | 10 to 100 | > 100 | < 10 | > 100 | – | ≤ 10 | – | – |
| COc1cc2c(cc1Nc1ncc(Cl)c(Nc3ccccc3S(=O)(=O)C(C)C)n1)CCC(NC(=O)CO)C2(C)C (centres unmarked) [Example 26, N-(6-(5-chloro-4-(2-(isopropylsulfonyl)phenylamino)pyrimidine-2-ylamino)-7-methoxy-1,1-dimethyl-1,2,3,4-tetrahydronaphthalene-2-yl)-2-hydroxyacetamide] | < 10 | 10 to 100 | < 10 | 10 to 100 | 10 to 100 | ≤ 10 | – | ≤ 10 |
| COc1cc2c(cc1Nc1ncc(Cl)c(Nc3ccccc3S(=O)(=O)C(C)C)n1)CCC(NC(=O)CN(C)C)C2(C)C (centres unmarked) [Example 27, N-(6-(5-chloro-4-(2-(isopropylsulfonyl)phenylamino)pyrimidine-2-ylamino)-7-methoxy-1,1-dimethyl-1,2,3,4-tetrahydronaphthalene-2-yl)-2-(dimethylamino)acetamide] | < 10 | 10 to 100 | < 10 | 10 to 100 | 10 to 100 | ≤ 10 | – | ≤ 10 |
| COc1cc2c(cc1Nc1ncc(Cl)c(Nc3ccccc3S(=O)(=O)C(C)C)n1)CCC(N1CCNCC1)C2 (centres unmarked) [Example 2, 5-chloro-N4-(2-(isopropylsulfonyl)phenyl)-N2-(3-methoxy-6-(piperazine-1-yl)-5,6,7,8-tetrahydronaphthalene-2-yl)pyrimidine-2,4-diamine] | < 10 | 10 to 100 | – | – | 10 to 100 | – | – | ≤ 10 |
| COc1cc2c(cc1Nc1ncc(Cl)c(Nc3ccccc3S(=O)(=O)C(C)C)n1)CC/C(=N\NC(=O)OC(C)(C)C)C2(C)C [Example 12, (E)-tert-but 2-(6-(5-chloro-4-(2-(isopropylsulfonyl)phenylamino)pyrimidine-2-ylamino)-7-methoxy-1,1-dimethyl-3,4-dihydronaphthalene-2(1H)-yladene)hydrazinecarboxylate] | – | > 100 | > 100 | > 100 | – | – | – | – |
| COc1cc2c(cc1Nc1ncc(Cl)c(Nc3ccccc3S(=O)(=O)C(C)C)n1)CCC(NC=N)C2(C)C (centres unmarked) [Example 29, N-(6-((5-chloro-4-((2-(isopropylsulfonyl)phenyl)amino)pyridine-2-yl)amino)-7-methoxy-1,1-dimethyl-1,2,3,4-tetrahydronaphthalene-2yl)formimideamide] | < 10 | 10 to 100 | – | > 100 | – | – | – | – |
| COc1cc2c(cc1Nc1ncc(Cl)c(Nc3ccccc3S(=O)(=O)C(C)C)n1)C(C)(C)C(=O)CC2 [Example 6, 7-(5-chloro-4-(2-(isopropylsulfonyl)phenylamino)pyrimidine-2-ylamino)-6-methoxy-1,1-dimethyl-3,4-dihydronaphthalene-2(1H)-one] | – | > 100 | – | – | – | – | – | – |

— patent US10369149B2, “4-(2-amino-tetrahydronaphthalenyl)pyrimidine derivative, preparation method therefor, and pharmaceutical composition for preventing or treating cancer, containing same as active ingredient” (KOREA RESEARCH INSTITUTE OF CHEMICAL TECHNOLOGY, priority 2015, dated 2019)
